Test results published in US20240368406A1, “STABLE LIQUID PHANTOM FOR NEAR-INFRARED FLUORESCENCE VERIFICATION” (SURGVISION GMBH, priority 2021, published 2024).

Key:
[1] = cited from earlier work
[2] = Stability of the phantom solutions at +2-8° C. during long-term storage (residual absorbance); type: physicochemical; details: 3 μM dye in HEPES 50 mM, pH 7.4, +2-8° C. protected from light
Protocol: Stability was measured as reduction in the absorbance at the maximum wavelength of the dye acquired using a UV/VIS spectrophotometer, denoting reduction of the dye monomer content in solution. […] A decrease in absorbance is associated with the reduction of the concentration of the dye in the formulation buffer, indicating low stability and degradation of the main chromophore species. The stability of the formulations under long-term storage conditions was also investigated. In particular, samples of 3 μM IRDye […] and 3 μM IRDye 800BK dissolved in HEPES buffer were stored refrigerated at +2-8° C. protected from light exposure for at least 6 months. For the long-term stability study at 2-8° C., samples of.

[3] = Stability of the phantom solutions at 25° C. (residual absorbance); type: physicochemical; details: storage at 25° C. in dark
Protocol: (§1) Stability was measured as reduction in the absorbance at the maximum wavelength of the dye acquired using a UV/VIS spectrophotometer, denoting reduction of the dye monomer content in solution. All the results were then reported as residual percentage vs the baseline (T=0), wherein at time=0 the percentage is 100%. A decrease in absorbance is associated with the reduction of the concentration of the dye in the formulation buffer, indicating low stability and degradation of the main chromophore species.
The stability of the formulations under stressed conditions was also investigated.

[4] = Stability of the phantom solutions at +2-8° C. (residual absorbance, UV/VIS); type: physicochemical; details: +2-8° C.
Protocol: Several stability studies were performed to evaluate the effect of different buffers, additives such as excipients or preservatives, and storage conditions on the dye formulation. In particular the stability of the formulations after storage at +2-8° C. in a refrigerator was firstly investigated.
as §1
In the Tables below the residual absorbance of different dyes, i.e. […] and S0456, in some representative organic buffering solutions is reported after storage of the formulations at +2-8° C.

[5] = Stability of the phantom solutions at +2-8° C. in the presence of additives (residual absorbance); type: physicochemical
Protocol: as §1
The effect of the presence of an additive on the stability of the formulations of the invention has been also investigated.
The preparation of the above buffers is described below:
50 mM HEPES (pH 7.4)+0.04% Tween 20: to prepare 100 mL of buffering solution, 1.19 g of HEPES were dissolved in 80 mL of water; 40 μL of Tween 20 were added and the pH was adjusted to 7.4 with 0.1 M HCl. The buffering solution was then brought to 100 mL volume with water and filtered on 0.22 μm membrane in sterile conditions.
50 mM HEPES (PH 7.4)+0.02% Sodium Azide: to prepare 100 mL of buffering solution, 1.19 g of HEPES and 20 mg of Sodium Azide were dissolved in 80 mL of water and the pH was adjusted to 7.4 with 0.1 M HCl. The buffering solution was then brought to 100 mL volume with water and filtered on 0.22 μm membrane in sterile conditions.
10 mM HEPES (PH 7.0)+10% EtOH: to prepare 100 mL of buffering solution, 0.24 g of HEPES were dissolved in 80 mL of water and the pH was adjusted to 7.0 with 0.1 M HCl.
Then, 10 mL of 100% Ethanol were added. The buffering solution was then brought to 100 mL volume with water and filtered on 0.22 μm membrane in sterile conditions.
Analogous solutions were prepared with the same procedure for MOPS, BES and TRICINE buffers.

For `O=S(=O)(O)CCN(CCO)CCO` [BES, 2-[bis(2-hydroxyethyl)amino]ethanesulfonic acid], the “pKa (20° C.)” value [1] is listed as 7.2.
In the case of `CC1(C)C(=CC=C2CCCC(C=CC3=[N+](CCCCCC(=O)[O-])c4ccc(S(=O)(=O)[O-])cc4C3(C)C)=C2Oc2ccc(S(=O)(=O)[O-])cc2)N(CCCCS(=O)(=O)[O-])c2ccc(S(=O)(=O)[O-])cc21.[Na+].[Na+].[Na+].[Na+]` [IRDye 800CW], the Residual absorbance percentage ([2]; 1 month) is reported as 99.3%, the Residual absorbance percentage ([2]; 3 months) is reported as 97.7% and the Residual absorbance percentage ([2]; 6 months) is reported as 96.2%. The Residual absorbance percentage ([3]; 3 μM dye in HEPES (50 mM), 1 week) was 100.9%, the Residual absorbance percentage ([3]; 3 μM dye in HEPES (50 mM), 2 weeks) was 98.4% and the Residual absorbance percentage ([3]; 3 μM dye in MOPS (50 mM), 1 week) was 99.7%. It also gave a Residual absorbance percentage ([3]; 3 μM dye in MOPS (50 mM), 2 weeks) of 97.3%, a Residual absorbance percentage ([4]; 3 μM dye in HEPES (50 mM, pH 7.4), 1 week (Table II)) of 100.9% and a Residual absorbance percentage ([4]; 3 μM dye in HEPES (50 mM, pH 7.4), 2 weeks (Table II)) of 100.3%. The Residual absorbance percentage ([4]; 3 μM dye in HEPES (50 mM, pH 7.4), 4 weeks (Table II)) was 99.3%, the Residual absorbance percentage ([4]; 3 μM dye in MES (50 mM, pH 6.2), 1 week) was 99.4% and the Residual absorbance percentage ([4]; 3 μM dye in MES (50 mM, pH 6.2), 2 weeks) was 96.7%. The Residual absorbance percentage ([4]; 3 μM dye in MES (50 mM, pH 6.2), 4 weeks) was 93.2%, the Residual absorbance percentage ([4]; 3 μM dye in MOPS (50 mM, pH 7.0), 1 week (Table II)) was 99.3% and the Residual absorbance percentage ([4]; 3 μM dye in MOPS (50 mM, pH 7.0), 2 weeks (Table II)) was 98.0%. For the same compound, the Residual absorbance percentage ([4]; 3 μM dye in MOPS (50 mM, pH 7.0), 4 weeks (Table II)) was 95.2%, the Residual absorbance percentage ([4]; 3 μM dye in PBS (50 mM, pH 7.4), 1 week) was 100% and the Residual absorbance percentage ([4]; 3 μM dye in PBS (50 mM, pH 7.4), 2 weeks) was 92.9%. For the same compound, the Residual absorbance percentage ([4]; 3 μM dye in PBS (50 mM, pH 7.4), 4 weeks) was 79.1%, the Residual absorbance percentage ([4]; 3 μM dye in PBS (50 mM, pH 7.4), 4 weeks, listed as IRDye 8000W) was “lower than 80%” and the Residual absorbance percentage ([4]; 3 μM dye in TRICINE (50 mM, pH 8.0), 1 week (Table II)) was 100.5%. The Residual absorbance percentage ([4]; 3 μM dye in TRICINE (50 mM, pH 8.0), 2 weeks (Table II)) was 99.9%, the Residual absorbance percentage ([4]; 3 μM dye in TRICINE (50 mM, pH 8.0), 4 weeks (Table II)) was 99.3% and the Residual absorbance percentage ([5]; 3 μM dye in HEPES (50 mM, pH 7.4) +0.02% sodium azide, +2-8° C., 1 week) was 96.9%. It also gave a Residual absorbance percentage ([5]; 3 μM dye in HEPES (50 mM, pH 7.4) +0.02% sodium azide, +2-8° C., 2 weeks) of 92.4%, a Residual absorbance percentage ([5]; 3 μM dye in HEPES (50 mM, pH 7.4) +0.02% sodium azide, +2-8° C., 4 weeks) of 89.1% and a Residual absorbance percentage ([5]; 3 μM dye in HEPES (50 mM, pH 7.4) +0.04% Tween 20, +2-8° C., 1 week) of 100.5%. For the same compound, the Residual absorbance percentage ([5]; 3 μM dye in HEPES (50 mM, pH 7.4) +0.04% Tween 20, +2-8° C., 2 weeks) was 95.8%, the Residual absorbance percentage ([5]; 3 μM dye in HEPES (50 mM, pH 7.4) +0.04% Tween 20, +2-8° C., 4 weeks) was 92.4% and the Residual absorbance percentage ([5]; 3 μM dye in TRICINE (50 mM, pH 8.0) +0.02% sodium azide, +2-8° C., 1 week) was 97.7%. The Residual absorbance percentage ([5]; 3 μM dye in TRICINE (50 mM, pH 8.0) +0.02% sodium azide, +2-8° C., 2 weeks) was 93.0%, the Residual absorbance percentage ([5]; 3 μM dye in TRICINE (50 mM, pH 8.0) +0.02% sodium azide, +2-8° C., 4 weeks) was 89.8% and the Residual absorbance percentage ([5]; 3 μM dye in TRICINE (50 mM, pH 8.0) +0.04% Tween 20, +2-8° C., 1 week) was 97.7%. It also gave a Residual absorbance percentage ([5]; 3 μM dye in TRICINE (50 mM, pH 8.0) +0.04% Tween 20, +2-8° C., 2 weeks) of 93.0% and a Residual absorbance percentage ([5]; 3 μM dye in TRICINE (50 mM, pH 8.0) +0.04% Tween 20, +2-8° C., 4 weeks) of 89.8%.
For `CC1(C)C(/C=C/C2=C(Cl)C(=C/C=C3/N(CCCCS(=O)(=O)[O-])c4ccc(S(=O)(=O)[O-])cc4C3(C)C)/CCC2)=[N+](CCCCS(=O)(=O)[O-])c2ccc(S(=O)(=O)[O-])cc21.[Na+].[Na+].[Na+]` [S0456], the Residual absorbance percentage ([4]; 3 μM dye in HEPES (50 mM, pH 7.4), 1 week (Table III)) was 99.0%, the Residual absorbance percentage ([4]; 3 μM dye in HEPES (50 mM, pH 7.4), 2 weeks (Table III)) was 98.5% and the Residual absorbance percentage ([4]; 3 μM dye in HEPES (50 mM, pH 7.4), 4 weeks (Table III)) was 96.9%. It also gave a Residual absorbance percentage ([4]; 3 μM dye in MOPS (50 mM, pH 7.0), 1 week (Table III)) of 98.8%, a Residual absorbance percentage ([4]; 3 μM dye in MOPS (50 mM, pH 7.0), 2 weeks (Table III)) of 98.5% and a Residual absorbance percentage ([4]; 3 μM dye in MOPS (50 mM, pH 7.0), 4 weeks (Table III)) of 96.1%. For the same compound, the Residual absorbance percentage ([4]; 3 μM dye in TRICINE (50 mM, pH 8.0), 1 week (Table III)) was 99.7%, the Residual absorbance percentage ([4]; 3 μM dye in TRICINE (50 mM, pH 8.0), 2 weeks (Table III)) was 98.7% and the Residual absorbance percentage ([4]; 3 μM dye in TRICINE (50 mM, pH 8.0), 4 weeks (Table III)) was 97.9%.
